Activity calls are given as the source filed them. No cut-off for these calls is given here. Where only a bound is given, the exact number is not on record here.

In one assay the test system is Raji. In words: Growth inhibition of Homo sapiens (human) Raji cells after 48 hr by MTT assay. The assay is classed as functional, cell-based. Background: Formazan colour is commonly taken as a measure of viable cells.
Assay [1] concerns MDA-MB-231. The experiment in a line: Anticancer activity against Homo sapiens (human) MDA-MB-231 cells assessed as cell viability at 50 uM after 48 hr by MTT assay (reference value: 100%). The assay is classed as functional. The note with it: MDA-MB-231, 48 h, read-out: Activity.
In assay [2] the test system is HL-60. The experiment in a line: Growth inhibition of Homo sapiens (human) HL60 cells after 48 hr by MTT assay. The assay is classed as functional, cell-based. The note with it: HL-60, 48 h.
For assay [3], the system named is MCF7. The experiment in a line: Growth inhibition of Homo sapiens (human) MCF7 cells after 48 hr by MTT assay. The assay is classed as functional, cell-based.
Assay [4] deals with HeLa. The experiment in a line: Growth inhibition of Homo sapiens (human) HeLa cells after 48 hr by MTT assay. The assay is classed as functional, cell-based.
The subject of assay [5] is MDA-MB-231. In words: Growth inhibition of Homo sapiens (human) MDA-MB-231 cells after 48 hr by MTT assay. The assay is classed as functional, cell-based.
The test system of assay [6] is HeLa. In words: Anticancer activity against Homo sapiens (human) HeLa cells assessed as cell viability at 50 uM after 48 hr by MTT assay (reference value: 100%). To be noted: read-out: Activity. The assay is classed as functional.
Assay [7] deals with MCF7. The experiment in a line: Anticancer activity against Homo sapiens (human) MCF7 cells assessed as cell viability at 50 uM after 48 hr by MTT assay (reference value: 100%). The assay is classed as functional. To be noted: MCF7, 48 h, read-out: Activity.
The test system of assay [8] is HL-60. The experiment in a line: Anticancer activity against Homo sapiens (human) HL60 cells assessed as cell viability at 50 uM after 48 hr by MTT assay (reference value: 100%). The assay is classed as functional. To be noted: HL-60, 48 h, read-out: Activity.

In general, IC50 refers to the concentration at which inhibition is half-maximal. Low values mean higher potency, high ones lower potency. Consider `O=C(c1cn(-c2ccccc2)nc1-c1ccsc1)N1CCN(c2ccncc2)CC1`, for which the IC50 with Raji and in the assay with HL-60 [2] was greater than 100 µM in each case. Further, the viability at 50 µM with MDA-MB-231 [1] was found to be 87.4%.

As for `CCc1ccc(OC(=O)c2cn(-c3ccccc3)nc2-c2ccsc2)cc1`, the “growth inhibition (GI)” value in the assay with MCF7 [3], with HeLa [4] and in the assay with MDA-MB-231 [5] was “inactive” each time. The IC50 in the assay with Raji and in the assay with HL-60 [2] was greater than 100 µM throughout.

One may read the GI50 as the concentration that inhibits growth by half. The low end stands for greater sensitivity of the cells, the high end for lower sensitivity of the cells. For the compound `O=C(c1cn(-c2ccccc2)nc1-c1ccsc1)N1CCN(c2ccc(C(F)(F)F)cc2)CC1`, the viability at 50 µM in the assay with HeLa [6] was 80.7%; in the assay with MCF7 [7], 85.9%; in the assay with MDA-MB-231 [1], 84.2%. In addition, the GI50 in the assay on Raji was determined as 32 µM; with HL-60 [2], 36.7 µM.

On to `O=C(c1cn(-c2ccccc2)nc1-c1ccsc1)N1CCN(c2ccccc2)CC1`, for which the results for the viability at 50 µM in the assay with HeLa [6] and with MDA-MB-231 [1] were 67.9% and 81.4%, respectively.

In the case of `Cc1cccc(C(C)C)c1OC(=O)c1cn(-c2ccccc2)nc1-c1ccsc1`, the “growth inhibition (GI)” value with MCF7 [3], in the assay with HeLa [4] and in the assay on MDA-MB-231 [5] was “inactive” each time. Also, the IC50 in the assay on Raji and in the assay on HL-60 [2] was greater than 100 µM in each case.

`CC(C)c1cccc(OC(=O)c2cn(-c3ccccc3)nc2-c2ccsc2)c1`: the “growth inhibition (GI)” value in the assay on MCF7 [3], in the assay with HeLa [4] and in the assay with MDA-MB-231 [5] was “inactive” in each case. For the same compound, the IC50 with Raji and with HL-60 [2] was greater than 100 µM in each case.

Take `COc1ccc(OC(=O)c2cn(-c3ccccc3)nc2-c2ccsc2)cc1`: the “growth inhibition (GI)” value in the assay on MCF7 [3], with HeLa [4] and in the assay with MDA-MB-231 [5] was “inactive” each time. Besides, the IC50 in the assay on Raji and in the assay on HL-60 [2] was greater than 100 µM in each case.

For the compound `CN1CCN(C(=O)c2cn(-c3ccccc3)nc2-c2ccsc2)CC1`, the IC50 in the assay with Raji and with HL-60 [2] was greater than 100 µM in each case.

With `O=C(O)c1cn(-c2ccccc2)nc1-c1ccsc1`, the IC50 in the assay with Raji and with HL-60 [2] was greater than 100 µM each time. Moreover, in the assay on MDA-MB-231 [1], the viability at 50 µM is 80.9%.

Regarding `O=C(NCc1ccccc1)c1cn(-c2ccccc2)nc1-c1ccsc1`, the viability at 50 µM in the assay on HeLa [6] was 82.3%; in the assay on MDA-MB-231 [1] it was 85%.

As for `O=C(Oc1ccc2ccccc2c1)c1cn(-c2ccccc2)nc1-c1ccsc1`, the “growth inhibition (GI)” value in the assay on MCF7 [3], in the assay on HeLa [4] and with MDA-MB-231 [5] was “inactive” in each case. The 50% inhibitory concentration (IC50) in the assay with Raji and in the assay with HL-60 [2] was greater than 100 µM throughout.

As to `O=C(c1cn(-c2ccccc2)nc1-c1ccsc1)N1CCOCC1`, the half-inhibitory concentration (IC50) with Raji and with HL-60 [2] was greater than 100 µM each time. The viability at 50 µM in the assay on MDA-MB-231 [1] was found to be 77.6%.

In the case of `O=C(Oc1ccc(-c2ccccc2)cc1)c1cn(-c2ccccc2)nc1-c1ccsc1`, the “growth inhibition (GI)” value in the assay on MCF7 [3], with HeLa [4] and in the assay with MDA-MB-231 [5] was “inactive” throughout. Moreover, the IC50 in the assay with Raji and in the assay with HL-60 [2] was greater than 100 µM throughout.

Turning to `O=C(c1cn(-c2ccccc2)nc1-c1ccsc1)N1CCC(Cc2ccccc2)CC1`, the viability at 50 µM in the assay on HeLa [6] is 71.8%; in the assay on MCF7 [7], 90.7%; in the assay with MDA-MB-231 [1] it was 82.8%; with HL-60 [8] it was 39.1%. Moreover, the GI50 came out at 25.2 µM in the assay on Raji and 28.3 µM in the assay on HL-60 [2].
